Measured values taken from patent US7638624B2, “Compositions and methods relating to novel benzodiazepine compounds and derivatives” (The Regents of the University of Michigan, priority 2005, dated 2009).

Assays:
[1] = tested on: Ramos cells; assay: Ramos cells exposed to compounds, O2- detected with dihydroethidium (DHE); assay type: cell-based; settings: 1 hour, 2% FBS, FIG. 2
Experimental: (§1) Ramos cells were exposed to the following compounds:
To detect O2^−, cells were incubated with dihydroethidium (DHE).

[2] = tested on: Ramos cells; assay: Detection of cell death in Ramos cells, viability by propidium iodide staining; assay type: cell-based; settings: 24 hours, 2% FBS, PI 1 μg/mL, FIG. 1
Experimental: as §1
Cell viability was assessed by staining with propidium iodide (PI, 1 μg/mL).

[3] = biological target: F1F0-ATPase; settings: F1F0-ATPase inhibition; cited from earlier work

In the case of `CC1CN(c2ccc(O)cc2)c2cc(Cl)ccc2N(Cc2ccc3ccccc3c2)C1=O` (stereo not drawn) [GD-423], the “cellular death (O2- detection with dihydroethidium)” value [1] is reported as “causes cell death” and the “cellular death (cell viability by propidium iodide staining)” value [2] is reported as “causes cell death”.
For `CC[C@H]1/C=C/C=C/C[C@@H](C)[C@H](O)[C@@](C)(O)C(=O)[C@@H](C)[C@H](O)[C@@H](C)C(=O)[C@@H](C)[C@H](O)[C@@H](C)/C=C/C(=O)O[C@@H]2[C@H](C)[C@H](CC1)O[C@]1(CC[C@H](C)[C@H](C[C@@H](C)O)O1)[C@H]2C` [oligomycin], the IC50 [3] is given as 10 nM.
